We go through one compound from patent US20130112218A1, “USE OF ELLAGIC ACID AS AN ANTI-DANDRUFF AGENT” (priority 2010, published 2013).

Test [1] relates to yeasts of the Malassezia genus. Kind of test: Test of effectiveness in an aqueous-alcoholic gel by leave-in application. Format: in vivo. The settings on record: ellagic acid 0.5% by weight in aqueous-alcoholic gel A, two applications per week, after one week of treatment, 25 individuals with dandruff, corneodisc count, placebo 29%. How it is done:
The aqueous-alcoholic gel for leave-in use A according to the invention was prepared according to the following table. The amounts are indicated as percent by weight of active material (A.M.) relative to the total weight of the composition. The study was carried out on a group of 25 individuals who had scalps with dandruff displaying an excessive proliferation of yeasts of the Malassezia genus. After two weeks of neutral shampoo, the individuals were treated with gel A of the invention or with an equal amount of a placebo comparative composition (identical composition without ellagic acid), at a rate of two applications per week. The yeasts per unit surface area were counted using a corneodisc sample of squamae.

Test [2] deals with scalps with dandruff displaying an excessive proliferation of yeasts of the Malassezia genus. Kind of test: Test of effectiveness in a shampoo. In kind it is in vivo. The settings on record: ellagic acid 1% by weight in shampoo B, rinsed out, twice a week for four weeks; 21 individuals with dandruff. The protocol: The shampoo B according to the invention was prepared according to the following table. The amounts are indicated as percent by weight of active material (A.M.) relative to the total weight of the composition. The study was carried out on a group of 21 individuals who had scalps with dandruff displaying an excessive proliferation of yeasts of the Malassezia genus. After two weeks of neutral shampoo, the shampoo composition B according to the invention was applied to the scalp for each individual. The composition was then rinsed out with water. This anti-dandruff treatment method was repeated twice a week for four weeks.

`O=c1oc2c(O)c(O)cc3c(=O)oc4c(O)c(O)cc1c4c23` [ellagic acid, 2,3,7,8-tetrahydroxy(1)benzopyrano(5,4,3-cde)(1)benzopyran-5,10-dione]: the “reduction in the number of Malassezia yeasts present on the scalp” value in test [1] is listed as 56%. Moreover, the anti-dandruff effectiveness entry in test [2] is given as “clear anti-dandruff effectiveness”.
